Experimental data: patent US20120122727A1, “IN VITRO METHOD FOR PREDICTING WHETHER A COMPOUND IS GENOTOXIC IN VIVO” (priority 2009, published 2012)

What was measured:
[1] = in vivo; cited from earlier work
[2] = tested on: primary mouse hepatocytes; assay: Class prediction true GTX vs false GTX by PAM from hepatocyte gene expression
Description: PAM uses gene expression data to calculate the shrunken centroid for each class and identifies the specific genes that determine the centroid most. Based on the nearest shrunken centroid, PAM is also capable of predicting to which class an unknown sample belongs (27). Class prediction was performed after 24 h and 48 h of exposure.
For this analysis, the gene list with differentially expressed probe sets was used. For each exposure period, 3 sets of genes (classifiers) were generated by PAM, using all ten treatments, based on the smallest estimated misclassification error rate (generated by 10-fold cross-validation) and a >80% predicted test probability. This was done by using 2 experiments as training set and the third experiment for validation. This was done for all 3 possible combinations, each time leaving out another experiment. For each time point, the classifiers that were in common between the three training sets, were set as the final classifier set for that time point
For the purpose of validating the class discrimination models with the final classifier sets, gene expression data were generated for two additional true GTX compounds, phenacetin and DMBA, and for three False GTX compounds, cur, ethylacrylate and resorcinol and the vehicle control for exposure periods of 24 and 48 h.

[3] = tested on: primary mouse hepatocytes; assay: Gene expression (Affymetrix Mouse Genome 430 2.0) in primary mouse hepatocytes, true vs false GTX, 24 h and 48 h
[4] = tested on: primary mouse hepatocytes; assay: Gene expression in primary mouse hepatocytes, GTX vs non-GTX (four-gene classifier, 24 h)

COc1cc(/C=C/C(=O)CC(=O)/C=C/c2ccc(O)c(OC)c2)ccc1O [cur]
Genotoxic class [1]: FP-GTX | Prediction 24 h Exp 1 [2]: FP-GTX | Prediction 24 h Exp 2 [2]: FP-GTX | Prediction 24 h Exp 3 [2]: FP-GTX | Prediction 48 h Exp 1 [2]: FP-GTX | Prediction 48 h Exp 2 [2]: FP-GTX | Prediction 48 h Exp 3 [2]: FP-GTX | class prediction (true GTX / false GTX) [2]: classified correctly | predicted test probability [2]: 100%

Aflatoxin B1 [AFB1]
Gene expression AA561726 average [3]: −1.481 | Gene expression AF000969 average [3]: −2.346 | Gene expression AF022072 average [3]: −0.9913 | Gene expression AF033112 average [3]: 1.033 | Gene expression AF055573 average [3]: −2.3744 | Gene expression AF069954 average [3]: 0.2361 | Gene expression AF297615 average [3]: 2.175 | Gene expression AF335325 average [3]: 1.3645 | Gene expression AI594683 average [3]: 1.508 | Gene expression AI747296 average [3]: −1.533 | Gene expression AK005731 average [3]: 2.2191 | Gene expression AK007854 average [3]: 1.5416 | Gene expression AK010447 average [3]: −1.2768 | Gene expression AK010738 average [3]: 0.6579 | Gene expression AK014608 average [3]: 1.186 | Gene expression AK017734 average [3]: 0.4796 | Gene expression AK018383 average [3]: 0.4069 | Gene expression AK019979 average [3]: −2.271 | Gene expression AV095209 average [3]: −0.6169 | Gene expression AV141095 average [3]: −1.192 | Gene expression AV173869 average [3]: −0.8814 | Gene expression AV216768 average [3]: −1.282 | Gene expression AV219418 average [3]: 0.8603 | Gene expression AV221299 average [3]: −0.7873 | Gene expression AV246296 average [3]: 1.098 | Gene expression AV251625 average [3]: 0.5471 | Gene expression AV254764 average [3]: 1.543 | Gene expression AV327248 average [3]: 1.4639 | Gene expression BB009155 average [3]: 1.3686 | Gene expression BB027848 average [3]: −0.004367 | Gene expression BB043558 average [3]: 1.629 | Gene expression BB046347 average [3]: 0.5079 | Gene expression BB140436 average [3]: −0.4938 | Gene expression BB204486 average [3]: −1.371 | Gene expression BB223872 average [3]: 0.5263 | Gene expression BB246912 average [3]: −1.2439 | Gene expression BB275142 average [3]: 0.5302 | Gene expression BB458460 average [3]: −1.132 | Gene expression BB463610 average [3]: 1.2472 | Gene expression BB730977 average [3]: −0.256 | Gene expression BB743970 average [3]: 0.3813 | Gene expression BB770528 average [3]: 0.8678 | Gene expression BB781615 average [3]: 0.9722 | Gene expression BC003284 average [3]: 0.7036 | Gene expression BC004827 average [3]: −1.255 | Gene expression BC005552 average [3]: −0.7309 | Gene expression BC006713 average [3]: 0.942 | Gene expression BC010318 average [3]: −0.9565 | Gene expression BC012247 average [3]: 0.7954 | Gene expression BC012955 average [3]: −1.403 | Gene expression BC013893 average [3]: 0.3479 | Gene expression BC017615 average [3]: −2.585 | Gene expression BC019379 average [3]: −1.263 | Gene expression BC019882 average [3]: 1.2329 | Gene expression BC021352 average [3]: 1.59 | Gene expression BC022148 average [3]: 1.0426 | Gene expression BC025169 average [3]: −1.03 | Gene expression BC026131 average [3]: −0.4476 | Gene expression BC027026 average [3]: 0.6995 | Gene expression BC027121 average [3]: 0.9799 | Gene expression BC027185 average [3]: 0.0776 | Gene expression BE956581 average [3]: 1.7703 | Gene expression BF719766 average [3]: 1.1094 | Gene expression BG065754 average [3]: 0.6884 | Gene expression BG066491 average [3]: −1.6995 | Gene expression BG076151 average [3]: 0.4779 | Gene expression BG076333 average [3]: −0.3573 | Gene expression BG797099 average [3]: 1.027 | Gene expression BG967046 average [3]: 0.6249 | Gene expression BI651416 average [3]: 1.979 | Gene expression BI966443 average [3]: 0.699 | Gene expression BM198879 average [3]: 1.579 | Gene expression BM200015 average [3]: 0.9342 | Gene expression BM230508 average [3]: 0.637 | Gene expression BM936480 average [3]: 0.1463 | Gene expression BQ174991 average [3]: −0.6262 | Gene expression L21027 average [3]: −1.868 | Gene expression NM_007556 average [3]: −0.9667 | Gene expression NM_007980 average [3]: 0.412 | Gene expression NM_007987 average [3]: 0.8772 | Gene expression NM_008522 average [3]: 2.271 | Gene expression NM_008935 average [3]: −1.772 | Gene expression NM_009897 average [3]: 1.054 | Gene expression NM_011075 average [3]: 1.1557 | Gene expression NM_011176 average [3]: 1.3047 | Gene expression NM_011316 average [3]: 0.6494 | Gene expression NM_012006 average [3]: 1.7541 | Gene expression NM_013642 average [3]: −0.2528 | Gene expression NM_013738 average [3]: 0.4146 | Gene expression NM_013929 average [3]: 0.7449 | Gene expression NM_018881 average [3]: 0.2001 | Gene expression NM_019738 average [3]: −2.37 | Gene expression NM_030697 average [3]: 1.271 | Gene expression NM_053122 average [3]: −2.304 | Gene expression NM_134147 average [3]: −1.51 | Gene expression NM_134188 average [3]: −0.159 | Gene expression X62701 average [3]: −0.6611 | Gene expression data AF000969 (Cadps2) [3]: −2.17 | Gene expression data AF022072 (Grb10) [3]: −1.2526 | Gene expression data AF065917 (Lif) [3]: 0.6896 | Gene expression data AF204959 (Cyp3a25 /// LOC622249) [3]: 1.404 | Gene expression data AF297615 (Ggta1) [3]: 1.1224 | Gene expression data AI594683 (Dmn) [3]: 1.048 | Gene expression data AI596632 (Ptprg /// LOC632664) [3]: −1.9945 | Gene expression data AI987929 (Ndrg1) [3]: −0.8074 | Gene expression data AK004419 (Fbxl17) [3]: −1.365 | Gene expression data AK005731 (1700007K13Rik) [3]: 2.2462 | Gene expression data AK007766 (1810044A24Rik) [3]: −1.554 | Gene expression data AK007854 (1810053B23Rik) [3]: 1.391 | Gene expression data AK009736 (Gpr137b /// LOC664862 /// LOC673335) [3]: −0.5076 | Gene expression data AK010447 (Smyd3) [3]: −1.2553 | Gene expression data AK014608 (4632434l11Rik) [3]: 1.765 | Gene expression data AK019979 (2610528E23Rik) [3]: −2.537 | Gene expression data AV095209 (Mthfd1l) [3]: −0.8398 | Gene expression data AV141095 (1110033M05Rik) [3]: −1.295 | Gene expression data AV173571 (1700106N22Rik) [3]: −1.239 | Gene expression data AV219418 (Ldhb) [3]: 0.2817 | Gene expression data AV223474 (Zdhhc14) [3]: −1.025 | Gene expression data AV298304 (Homez) [3]: 1.03 | Gene expression data AV327248 (Zfp365 /// LOC674611) [3]: 0.8055 | Gene expression data AV377066 (9130221J18Rik) [3]: 1.0883 | Gene expression data AW240761 (Tbc1d5) [3]: −1.118 | Gene expression data AW543460 (Pard3) [3]: −0.2756 | Gene expression data AW543723 [3]: 1.427 | Gene expression data AW986246 (Maoa) [3]: −0.3385 | Gene expression data BB027848 (4732466D17Rik) [3]: −0.016 | Gene expression data BB043558 (9230114K14Rik) [3]: 1.671 | Gene expression data BB275142 (AW456874) [3]: 1.009 | Gene expression data BB308836 (Ppm1l) [3]: −1.077 | Gene expression data BB318221 (Zdhhc14) [3]: −1.0808 | Gene expression data BB463610 (4632434l11Rik) [3]: 1.7658 | Gene expression data BB526605 (Mipol1) [3]: −0.7181 | Gene expression data BB770528 (Rai2) [3]: 0.7477 | Gene expression data BB821363 (Scfd2) [3]: −1.354 | Gene expression data BC004827 (Psat1) [3]: −1.0032 | Gene expression data BC008626 (Icam1) [3]: 1.4158 | Gene expression data BC010462 (BC010462) [3]: 0.9985 | Gene expression data BC012247 (Dcxr) [3]: 0.3677 | Gene expression data BC012260 (Psmf1) [3]: 1.2375 | Gene expression data BC015270 (Hist2h3c2) [3]: 1.093 | Gene expression data BC016073 (Cdkal1) [3]: −1.1 | Gene expression data BC016265 (Ube2e2) [3]: −0.8797 | Gene expression data BC019882 (Acaa1b) [3]: 0.4654 | Gene expression data BC025501 (Aaas) [3]: 1.14 | Gene expression data BC025837 (Sbk1) [3]: 0.4694 | Gene expression data BC025915 (Cova1) [3]: −0.642 | Gene expression data BC026422 (Tgm1) [3]: 0.8843 | Gene expression data BF719766 (Thyn1) [3]: 0.3892 | Gene expression data BG065754 (Ccng1) [3]: 0.8383 | Gene expression data BG066903 (Kif16b) [3]: −0.5074 | Gene expression data BG069873 (Gnb1l) [3]: 0.7276 | Gene expression data BG070887 (Gtdc1) [3]: −1.473 | Gene expression data BG076151 (Ppm1d) [3]: 0.6026 | Gene expression data BG261907 (Large) [3]: −1.119 | Gene expression data BI651416 (Cdc42bpg) [3]: 1.8011 | Gene expression data BI660702 (Ell3) [3]: 0.4068 | Gene expression data BM198879 (Ercc5) [3]: 1.61 | Gene expression data BM230508 (A030007D23Rik) [3]: 0.5919 | Gene expression data NM_007987 (Fas) [3]: 0.628 | Gene expression data NM_008522 (Ltf) [3]: 1.055 | Gene expression data NM_008576 (Abcc1) [3]: −0.1885 | Gene expression data NM_011176 (St14) [3]: 1.289 | Gene expression data NM_011316 (Saa4) [3]: 0.2733 | Gene expression data NM_012006 (Acot1) [3]: 1.251 | Gene expression data NM_013866 (Zfp385) [3]: 0.9513 | Gene expression data NM_018770 (Igsf4a) [3]: −0.439 | Gene expression data NM_021451 (Pmaip1) [3]: 1.1 | Gene expression data NM_025770 (Atg10) [3]: −1.128 | Gene expression data NM_028803 (Gbe1) [3]: −1.004 | Gene expression data NM_030697 (Ankrd47) [3]: 1.8143 | Gene expression data NM_053168 (Trim11) [3]: 1.268 | Gene expression data NM_134188 (Acot2) [3]: 0.01207 | Gene expression data Y15910 (Diap2) [3]: −1.889 | Ratios of gene expression treated/untreated 1700007K13RIK [4]: 2.912 | Ratios of gene expression treated/untreated DDIT4L [4]: 1.616 | Ratios of gene expression treated/untreated GAS2L3 [4]: 1.234 | Ratios of gene expression treated/untreated SPC25 [4]: 1.523 | Total score [4]: 4 | score 1700007K13RIK [4]: 1 | score DDIT4L [4]: 1 | score GAS2L3 [4]: 1 | score SPC25 [4]: 1
